# Test results published in patent publication US20240212786A1, “METHOD OF DISCOVERING NOVEL ANTICANCER DRUG USING CO-ESSENTIALITY NETWORK, AND AN APPARATUS THEREOF” (POSTECH RESEARCH AND BUSINESS DEVELOPMENT FOUNDATION, priority 2022, published 2024).
# Structures can show the parent of a compound that is named as a salt.
# What was measured:
# [1] = test system: COADREAD differential gene expression; 15 large intestine cancer cell lines; assay: Reversal gene expression (RGE) effect from CMap L1000 profiles; type: cell-based
# From the text: To estimate the efficacy of the drug by altering the gene expression to be a reversal of that in cancer conditions, the present inventors used the L1000 dataset from CMap[9]. From the L1000 dataset, the present inventors obtained 6,056 compounds with PubChem IDs and expression profiles for 978 genes directly measured in 15 cancer cell lines whose primary site was the large intestine: CL34, HCT116, HELA, HT115, HT29, LOVO, MDST8, NCIH508, NCIH716, RKO, SNU1040, SNUC5, SW480, SW620, and SW948. The present inventors initially computed the RGE effect between the differential gene expression of COADREAD (obtained via CREEDS[10], signature ID: dz552) and the compound's transcriptional profile using Zhang's connection score, that is, the absolute value of the anti-correlated, standardized ranked connection score. Since drugs have multiple transcriptional profiles for each cell line depending on the treatment dose and time, the present inventors calculated the max RGE effect for each cell line and used the median RGE effect across cell lines as a representative value. Finally, the performance of the network in predicting the drug's RGE effect was measured using the Spearman correlation coefficient between the TC score and the RGE effect of drugs that exist in both PanDrugs and CMap.
# [2] = test system: cancer cell lines of COADREAD; settings: median over COADREAD cancer cell lines, PRISM secondary screen data; cited from earlier work
# Huh7 cells = assay: MTS cell viability assay, Huh7; type: cell-based; settings: Homo sapiens, Huh-7, 72 h
# Procedure: (§1) The human LIHC cell lines SNU398, SK-HEP-1, and Huh7 were obtained from the Korean Cell Line Bank (Scoul, Korea), and HepG2 cells were obtained from the American Type Culture Collection (Manassas, VA, USA). SNU398 and Huh7 were cultured in Roswell Park Memorial Institute (RPMI) 1640 medium (Welgene) supplemented with 10% fetal bovine serum (FBS, Merck), 100 IU/mL penicillin, and 100 μg/mL streptomycin (Welgene). SK-HEP-1 and HepG2 were maintained in Eagle's Minimum Essential medium (EMEM, Lonza) supplemented with 10% FBS. All cells were incubated at 37° C. in a humidified incubator with 5% CO2.
# (§2) To assess cell viability, SNU398, SK-HEP-1, Huh7, and HepG2 cells were plated in 96-well plates at a density of 8×10^3 or 1×10^4 cells per well. […] After incubation for 72 h, cell viability was determined using the phenazine methosulfate (PMS)/3-(4,5-dimethylthiazol-2-yl)-5-(3-carboxymethoxyphenyl)-2-(4-sulfophenyl)-2H-tetrazolium, inner salt (MTS) assay using the Cell Titer 96 Aqueous Non-Radioactive Cell Proliferation Assay kit (Promega, Madison, WI, USA) according to the manufacturer's instructions. The absorbance at 490 nm was measured using a microplate reader (Multiskan SkyHigh Microplate Spectrophotometer, Thermo Scientific). IC50 values were calculated from dose-response curves using GraphPad Prism 9 (GraphPad Software).
# SK-HEP-1 cells = assay: MTS cell viability assay, SK-HEP-1; type: cell-based; settings: Homo sapiens, SK-HEP1, 72 h
# Procedure: as §1, §2
# SNU398 cells = assay: MTS cell viability assay, SNU398; type: cell-based; settings: Homo sapiens, SNU-398, 72 h
# Procedure: as §1, §2
# HepG2 cells = assay: MTS cell viability assay, HepG2; type: cell-based; settings: Homo sapiens, 72 h
# Procedure: as §1, §2
Structure (SMILES),rank percentile of RGE effect ([1]; COADREAD),"RGE effect ([1]; median across cell lines of max RGE effect, Zhang's connection score, COADREAD signature)",IC50 [2],IC50 (Huh7 cells),IC50 (SK-HEP-1 cells),IC50 (SNU398 cells),IC50 (HepG2 cells)
Cn1c(=O)c(F)c(Nc2ccc(I)cc2F)c2c(=O)n(C[C@@H](O)CO)cnc21 [TAK-733],91.18%,0.123,1.03 nM,–,–,–,–
CC(C)C[C@H](NC(=O)CNC(=O)c1cc(Cl)ccc1Cl)B1OC(=O)C(CC(=O)O)(CC(=O)O)O1 [ixazomib citrate],–,–,–,137 nM,270 nM,746 nM,197 nM
